Common to all, as to type: in vivo
The test system of experiment [1] is Meloidogyne incognita J2s. Description: Tomato invasion assay, M. incognita J2s. Particulars: 100 μM uNLP, 24 h, tomato seedlings, normalised to negative control. As to the method:
(§1) Predicted uNLPs from both M. incognita and G. pallida were synthesised by EZBiolab and dissolved into pH adjusted ddH2O to make a 5 mM stock which was aliquoted and stored at −20° C. J2s of both M. incognita and G. pallida were incubated for 24 hours in 200 μl of each peptide in a 24 well plate (SPL Lifesciences, South Korea) at a defined concentration.
(§2) Tomato seeds were sterilised with 2.5% NaOCl for 15 minutes, washed 5 times in ddH2O and germinated on 0.5% Murashige and Skoog plates at 23° C. […] Invasion assays were performed by mixing 500 pre-treated M. incognita or G. pallida J2s with agar slurry and a single tomato seedling (2 days post germination) in a 6 well plate. Assays were left at 23° C. for 24 hours in the case of M. incognita and at 18° C. for 24 hours in the case of G. pallida under a 16 hour light and 8 hour darkness cycle. Seedlings were stained using acid fuschin [69] and the number of nematodes within the roots counted.

Experiment [2] deals with Meloidogyne incognita J2s. The experiment is described as follows: Serotonin-induced stylet thrusting assay, M. incognita J2s. Conditions: 100 μM uNLP, 24 h, 5 mM serotonin. The method, then: as §1
(§3) Stylet thrusting assays where performed by incubating 100 M. incognita or G. pallida J2s for 15 minute in 5 mM or 2 mM serotonin (Sigma Aldrich, USA), respectively. J2s were placed on a glass slide and stylet thrusts were counted for randomly selected J2s, for 1 minute each. Counting took place for a maximum of 15 minutes. Longer incubations yielded inconsistent results. At least 30 J2s were counted for each neuropeptide treatment.

The subject of experiment [3] is Globodera pallida infective stage juveniles (J2s). Description: Chemosensory (chemotaxis) assay towards root exudate, G. pallida J2s. Particulars: 100 μM uNLP, 24 h, mean+/-SEM. The method, then: as §1
(§4) A 60 mm Petri dish was divided into two segments, a positive and a negative side, with a 0.5 cm ‘dead zone’ either side of the centre point. The petri dish was filled with 15 ml of 0.25% w/v agar which was allowed to solidify. 3 ml of 0.25% w/v agar slurry in spring water (pH 7, agitated with a magnetic stirrer for several hours to give a smooth consistency) was added to the petri dish and spread evenly over the surface. Root diffusate (attractant) and water only (control) 0.25% agar plugs were embedded in the agar slurry, either side of the assay arena. Root diffusate was collected from 10 tomato plants, aged 3-6 weeks in 1 litre pots, by pouring 500 ml of ddH2O through the soil three times. Diffusate from each plant was combined, filter sterilised and stored at 4° C. for a maximum of 1 month. Root diffusate agar plugs were made by melting 1.25% agar in ddH2O, cooling to 50° C. before mixing with 4 parts of root diffusate. The agar was then allowed to solidify at room temperature. 100 uNLP pre-treated M. incognita or G. pallida J2s were added by pipette to the centre of the plate. J2s which moved out of the ‘dead zone’ after 3 hours were counted and their location (+/−) scored. The distribution of J2s were used to create a chemotaxis index for each plate, which formed one replicate, a total of 10 replicates where completed for each uNLP treatment.

Experiment [4] deals with Meloidogyne incognita infective stage juveniles (J2s). Description: Chemosensory (chemotaxis) assay towards root exudate, M. incognita J2s. Conditions: M. incognita J2s, 100 μM uNLP, 24 h; mean+/-SEM. The method, then:
as §1, §4

The test system of experiment [5] is Globodera pallida J2s. Description: Tomato invasion assay, G. pallida J2s. Particulars: G. pallida J2s, 100 μM uNLP, 24 h; tomato seedlings. The method, then: as §1, §2
For experiment [6], the system named is Globodera pallida J2s. The experiment is described as follows: Serotonin-induced stylet thrusting assay, G. pallida J2s. Conditions: 100 μM uNLP, 24 h, 2 mM serotonin. As to the method: as §1, §3

For “AAENFDENNDIN [Mi-NLP-18d, predicted unamidated NLP of Meloidogyne incognita]”, the “host invasion compared to controls” value in experiment [1] is 34.21%+/−12. Also, the “rate of serotonergic-induced stylet thrusting compared with controls” value (“rate … compared with controls” below) in experiment [2] came out at 147.7%+/−16.05.

On to “AFDLFTGPGFTGMD [Gp-NLP-15h, predicted unamidated NLP of Globodera pallida]”, for which, in experiment [3], the “chemotaxis index (Cl) towards root exudate” value (shortened to “chemotaxis index”) was −0.06784+/−0.1415.

For the sequence “AFDRLDNSFMLL [Mi-NLP-8d, predicted unamidated NLP of Meloidogyne incognita]”, the “host invasion compared to controls” value in experiment [1] was determined as 29.31%+/−12.57.

As to “AFDRLDVSPFDFDAMT [Mi-NLP-8a, predicted unamidated NLP of Meloidogyne incognita]”, in experiment [2], the “rate … compared with controls” value amounted to 126.1%+/−9.278. For the same sequence, the “chemotaxis index” value in experiment [4] is on record as 0.018+/−0.3438.

“AFDSFAGNGFTGFD [Mi-NLP-15f, predicted unamidated NLP of Meloidogyne incognita]”: in experiment [2], the “rate … compared with controls” value is 75.18%+/−9.199. Further, the “chemotaxis index” value in experiment [4] is reported as −0.05+/−0.3547.

Regarding “AFDSFGTPGFTGFD [Mi-NLP-15a, predicted unamidated NLP of Meloidogyne incognita]”, the “chemotaxis index” value in experiment [4] is reported as −0.01067+/−0.06497.

For the sequence “AFDSFTGPGFTGMD [Gp-NLP-15g, predicted unamidated NLP of Globodera pallida]”, the “chemotaxis index” value in experiment [3] is listed as −0.2208 +/−0.1568.

Turning to “AGARAFQRPDFDDASYEL [Mi-NLP-9a, predicted unamidated NLP of Meloidogyne incognita]”, in experiment [1], the “host invasion compared to controls” value was 45.59%+/−22.97.

For “AGGRLFRMVDLPDGDDFVPEG [Gp-NLP-21e, predicted unamidated NLP of Globodera pallida]”, in experiment [3], the “chemotaxis index” value is −0.3804+/−0.2762.

Regarding “AGGRYFMRHFDDSPFAGWMA [Gp-NLP-21g, predicted unamidated NLP of Globodera pallida]”, the “host invasion relative to controls” value in experiment [5] is listed as 214.8%+/−30.31. Besides, in experiment [3], the “chemotaxis index” value is listed as −0.01357+/−0.1854.

Turning to “ALDILDGDDFTGFS [Gp-NLP-14e, predicted unamidated NLP of Globodera pallida]”, in experiment [3], the “chemotaxis index” value was −0.0641+/−0.2329.

Turning to “ALDILESDDFGGF [Gp-NLP-14a, predicted unamidated NLP of Globodera pallida]”, the “chemotaxis index” value in experiment [3] was −0.3765+/−0.1039.

Turning to “ALDLMEGDGFGGGFD [Mi-NLP-14b, predicted unamidated NLP of Meloidogyne incognita]”, the “chemotaxis index” value in experiment [4] is recorded as −0.1155+/−0.1472.

Take “ALDMLEGDDFIGMQ [Mi-NLP-14a, predicted unamidated NLP of Meloidogyne incognita]”: the “host invasion compared to controls” value in experiment [1] is 44.61%+/−12.25. For the same sequence, the “rate … compared with controls” value in experiment [2] is on record as 61.6%+/−7.86.

As for “ALDMMEGDDFIGL [Mi-NLP-14c, predicted unamidated NLP of Meloidogyne incognita]”, the “host invasion compared to controls” value in experiment [1] stood at 20.96%+/−11.12. Also, the “rate … compared with controls” value in experiment [2] turned out to be 134.7%+/−19.51.

For the sequence “FAPRQFAFA [Mi-NLP-18a, predicted unamidated NLP of Meloidogyne incognita]”, the “host invasion compared to controls” value in experiment [1] was found to be 25.88%+/−8.695. In experiment [4], the “chemotaxis index” value is given as −0.1353+/−0.1129.

Regarding “FNDDELSSLPFNFEYFPSLDTH [Mi-NLP-8b, predicted unamidated NLP of Meloidogyne incognita]”, in experiment [1], the “host invasion compared to controls” value was 61.38%+/−11.56.

Turning to “GGARAFAKLEE [Mi-NLP-9c, predicted unamidated NLP of Meloidogyne incognita]”, the “rate … compared with controls” value in experiment [2] is 143.2%+/−9.878.

“GGARAFFGDADGPFNSASYWAP [Gp-NLP-21h, predicted unamidated NLP of Globodera pallida]”: the “chemotaxis index” value in experiment [3] was −0.01564+/−0.08072. For the same sequence, in experiment [6], the “serotonergic-induced stylet thrusting relative to control groups” value is 116.8%+/−4.876.

Regarding “GGARAFNFFAPDE [Gp-NLP-21b, predicted unamidated NLP of Globodera pallida]”, in experiment [5], the “host invasion relative to controls” value was 6.897%+/−3.855. In addition, the “chemotaxis index” value in experiment [3] is given as −0.117 +/−0.1936.

Regarding “GGARAFNFFAPPDE [Gp-NLP-21a, predicted unamidated NLP of Globodera pallida]”, the “host invasion relative to controls” value in experiment [5] stood at 178.9%+/−48.52.

For the sequence “GGARAFNGAEETLLNVANLA [Gp-NLP-21i, predicted unamidated NLP of Globodera pallida]”, the “chemotaxis index” value in experiment [3] was −0.1733 +/−0.02667. For the same sequence, in experiment [6], the “serotonergic-induced stylet thrusting relative to control groups” value worked out at 117.7%+/−4.497.

As for “GGARPFYGFFGGGEGTW [Mi-NLP-9e, predicted unamidated NLP of Meloidogyne incognita]”, the “host invasion compared to controls” value in experiment [1] was 48.68%+/−10.87.

On to “GGARPFYGGGYMDGTW [Gp-NLP-21f, predicted unamidated NLP of Globodera pallida]”, for which the “chemotaxis index” value in experiment [3] was 0.1456+/−0.1232.

Take “GGARTFLVGE [Mi-NLP-9b, predicted unamidated NLP of Meloidogyne incognita]”: in experiment [4], the “chemotaxis index” value is on record as −0.07417+/−0.154.

For “GGTRAFNFFVSDALPSSYE [Gp-NLP-21c, predicted unamidated NLP of Globodera pallida]”, the “host invasion relative to controls” value in experiment [5] turned out to be 14.07%+/−4.655.

Regarding “GMRNFAFA [Mi-NLP-18b, predicted unamidated NLP of Meloidogyne incognita]”, in experiment [1], the “host invasion compared to controls” value stood at 47.81%+/−6.008. Also, in experiment [2], the “rate … compared with controls” value was 146.6%+/−7.609.

“SAFDSFVGRGFTGMD [Mi-NLP-15e, predicted unamidated NLP of Meloidogyne incognita]”: in experiment [1], the “host invasion compared to controls” value came to 38.71%+/−5.963. The “chemotaxis index” value in experiment [4] was −0.01767+/−0.09428.

For the sequence “SFDSFTGSGFTGLD [Gp-NLP-15c, predicted unamidated NLP of Globodera pallida]”, the “chemotaxis index” value in experiment [3] is −0.227+/−0.0776. In experiment [6], the “serotonergic-induced stylet thrusting relative to control groups” value was determined as 56.07%+/−9.441.

On to “SFDSFVGKGFTGMD [Mi-NLP-15c, predicted unamidated NLP of Meloidogyne incognita]”, for which the “chemotaxis index” value in experiment [4] is −0.359+/−0.277.

Regarding “SFDSLTGPGFTGLDT [Gp-NLP-15a, predicted unamidated NLP of Globodera pallida]”, the “chemotaxis index” value in experiment [3] was −0.1451 +/−0.221.

As for “SFGDYPFGSRTFAFA [Mi-NLP-18c, predicted unamidated NLP of Meloidogyne incognita]”, the “rate … compared with controls” value in experiment [2] was found to be 175.5%+/−20.72.

On to “SGIQTFRDDYDEKQAGEL [Gp-NLP-21d, predicted unamidated NLP of Globodera pallida]”, for which the “host invasion relative to controls” value in experiment [5] is listed as 2.01%+/−1.545.

With “SSLASGRIGFRPA [Mi-NLP-2, predicted unamidated NLP of Meloidogyne incognita]”, the “rate … compared with controls” value in experiment [2] is listed as 164.4%+/−20.3.

Turning to “SSQFGGENSFARFAFA [Mi-NLP-18e, predicted unamidated NLP of Meloidogyne incognita]”, the “host invasion compared to controls” value in experiment [1] was determined as 46.49%+/−7.391.

(Values after patent publication US20200123208A1, “PEPTIDES AND NEMATICIDAL COMPOSITIONS” (priority 2017, published 2020).)
